Mass density data for two compounds are collected here from the NIST ThermoML archive (doi:10.1016/j.fluid.2014.02.029).

± gives the expanded uncertainty stated by the source.

The conditions of this data set: 100 kPa, Liquid, Vibrating tube method.

By mass density is commonly meant the mass of a sample divided by its volume. For the compound `CCCCOCCOC(C)=O` [2-butoxyethyl acetate], the mass density by setting is: (293.15 K) 940.7 ± 0.77 kg/m3; (303.15 K) 930.89 ± 0.76 kg/m3; (313.15 K) 921.05 ± 0.75 kg/m3; (323.15 K) 911.18 ± 0.74 kg/m3; (333.15 K) 901.29 ± 0.73 kg/m3.

In the case of `CCOCCOCCOC(C)=O` [2-(2-ethoxyethoxy)ethyl acetate], the mass density was determined as 1009.46 ± 0.25 kg/m3 (293.15 K); 999.19 ± 0.24 kg/m3 (303.15 K); 988.92 ± 0.24 kg/m3 (313.15 K); 978.66 ± 0.24 kg/m3 (323.15 K); 968.38 ± 0.24 kg/m3 (333.15 K).
